Experiments:
[1] = test system: Ub-proteins; assay: Duration of ubiquitinization effect (FIG. 18); details: compared with Btz
[2] = test system: OVX mice; assay: OVX-induced bone loss in C57/B6 mice; type: in vivo, mouse
Experimental: Ovariectomy was carried out in 10-week-old female C57/B6 mice.
Histomorphometry (FIG. 20A) and biomechanical testing (FIG. 20B) were also done. These experiments were done using C57/B6 mice, 10 w, treatment at 4 w post-OVX for 4 w.

[3] = test system: Myeloma cells; assay: Myeloma cell growth in vitro (living cell count); type: cell-based; details: 24 hrs, living cell numbers counted
Experimental: Myeloma cells were treated with different concentrations of testing compounds for 24 hrs. The living cell numbers were counted. *p<0.05 vs. Btz.

[4] = test system: UPS activation; assay: Ub^G76V-GFP reporter cells (GFP+ cells) in osteoclast cultures and on pre-incubated bone slices; type: cell-based, mouse; details: for GFP+ cells on pre-incubated bone slices: BM cells from Ub^G76V-GFP mice on bone slices pre-incubated with compound
Experimental: (§1) FIG. 5A is a scheme of an exemplary synthesis of compound BP-Btz1. FIG. 5B is a series of images of bone slices pre-incubated with 1 μM BP-Btz1, Btz, or bisphosphonate (BP) overnight. Drug solutions were removed and bone slices were washed with PBS extensively. […] (BM) cells from UB^G76V-GFP mice were cultured on bone slices in the presence of M-CSF and RANKL for 9 days. Top images (a): GFP^+ cells were observed under a fluorescence microscope and GFP signal intensity was quantified. Middle images (b): bone slices were fixed and subjected to TRAP staining for osteoclasts (OCs). OC #/slice were counted. Bottom images (c): cells were removed from slices. Toluidine blue staining was performed and pit areas/slice were counted. FIG. 5C is a series of images of murine BM cells cultured and stained for ALP. FIG. 5D is a series of images of human MSCs cultured and stained for ALP. Murine BM cells and human MSCs were cultured in the OB-inducing medium plus different concentrations of BP-Btz1 or Btz for 4 or 6 days, respectively. Cells were stained for ALP. The ALP^+ areas were measured by Image J. *P<0.05 vs. Btz-treated cells.
1. Ub^G76V-GFP mice in B6 background (Stock #008111, Jax lab) are generated using previously described methods (Lindsten et al., 2003, Nat. Biotech. 21:897-902). The Ub^G76V-GFP transgene was designed with a chicken beta-actin promoter and CMV immediate early enhancer upstream of a GFP fused to a mutant ubiquitin moiety (Ub^G76V), a constitutively active proteasome degradation signal. Following proteasome inhibitor administration, Ub^G76V accumulates and GFP fluorescence is readily apparent. GFP^+ OCs were detected at 4 and 8 hrs after adding Btz to OC cultures, which disappeared at 24 hrs. […] 2. OC formation and resorption assays and data analyses are performed as described herein (FIG. 4) and using previously described methods (Zhang et al., 2014, J. Clin. Invest. 124:3200-3214; Xiu et al., 2014, J. Clin. Invest. 124:297-310). […] The number and area of OCs and resorption pits are assessed. The appearance, intensity and distribution of GFP^+ cells on bone slices and plastic surrounding bone slices during OC formation is observed and recorded. 3. OB differentiation. Third passages of BM stromal cells are used as MPCs, as previously described (Shu et al., 2013, J. Bone Min. Res. 28:1925-1935; Zhang et al., 2014, J. Clin. Invest. 124:3200-3214). MPCs are cultured on plastic plates in OB-inducing medium±BP-Btz conjugates, Btz or BP (0.1-100 nM) for 1-3 wks. Plates are subjected to alkaline phosphatase (ALP) and alizarin red staining, and qPCR analyses. Area of ALP^+ and mineralized bone nodule, and the expression levels of OB marker genes (ALP, osteocalcin, Runx2) are measured. GFP^+ cells during OB differentiation are observed as in OCs. In a parallel experiment, human MSCs (from Lonza) are treated with BP-Btz, Btz, or BP in OB-inducing medium and their effects examined on OB differentiation as show in FIGS. 5C and 5D. 4. Western blot/Ub assays. OCPs or MPCs are treated with a preferred dose of leading BP-Btz, Btz and BP. OCP lysates are subjected to Western blot using α-NF-κB members and TRAF6 Abs. OB lysates are subjected to Western blot with α-ubiquitin, Runx2, or JunB Abs, and Ub assays using UbiQapture matrix (Biomol) to pull down Ub-proteins followed by α-Runx2 and JunB Abs using previously described methods (Zhao et al., 2010, J. Bone Min. Res. 25:1246-1256; Zhao et al., 2011, Stem cells 29:1601-1610).

[5] = test system: human MPCs; assay: Osteoblast differentiation of human MPCs/MSCs (ALP staining); type: cell-based
Experimental: as §1, with “FIG. 5C is a series of images of murine BM cells cultured and stained for ALP. FIG. 5D is a series of images of human MSCs cultured and stained for ALP. Murine BM cells and human MSCs were cultured in the OB-inducing medium plus different concentrations of BP-Btz1 or Btz for 4 or 6 days, respectively. Cells were stained for ALP.” left out
1. […] Following proteasome inhibitor administration, Ub^G76V accumulates and GFP fluorescence is readily apparent. GFP^+ OCs were detected at 4 and 8 hrs after adding Btz to OC cultures, which disappeared at 24 hrs. […] The number and area of OCs and resorption pits are assessed. The appearance, intensity and distribution of GFP^+ cells on bone slices and plastic surrounding bone slices during OC formation is observed and recorded. […] Area of ALP^+ and mineralized bone nodule, and the expression levels of OB marker genes (ALP, osteocalcin, Runx2) are measured. […]

[6] = test system: WT mice; assay: Bone volume and osteoblast differentiation in WT mice; type: in vivo, mouse
[7] = test system: fractured mice; assay: Open tibial fracture healing in WT mice; type: in vivo, mouse
Experimental: WT mice that received an open tibial fracture were treated with Btz (0.6 mg/kg body weight, ip) or vehicle at day 1, 3, 5, 7, and sacrificed at various days post-fracture. FIG. 2A is an image of the structure of Bortezomib. FIG. 2B is a graph depicting μCT data analyses of callus size from 10 days post-fracture. N+4 mice/group. FIG. 2C is a series of images of representative histology of fractured tibiae stained with alcian blue hematoxylin/orange G eosin showing cartilage (blue) and bone (pink) formation. Histomorphometric measurements were performed with a Visiopharm Imaging Analysis software system. N=3 mice/group. FIG. 2D is a series of graphs depicting data of biomechanical testing of tibiae from 28 days after fracture. N=5 mice/group. FIG. 2E is a series of images of spectra depicting data of immune-phenotyping of callus cells from 7 days post-fracture. FIG. 2F is a series of images of immunoblots depicting protein expression levels of total Ub-proteins and JunB and Runx2 levels in calluses from 10 days post-fracture. *p<0.05 vs. vehicle group.

[8] = OVX C57/B6 mice, treatment at 4 w post-OVX for 4 w

With `CC(C)C[C@H](NC(=O)[C@H](Cc1ccccc1)NC(=O)c1cnccn1)B1OCCN(CCOC(=O)NC(P(=O)(O)O)P(=O)(O)O)CCO1` [BP-Btz1] the ubiquitinization effect [1] was “more sustained ubiquitinization effect than Btz”, the bone mass [2, 8] was “increases bone mass and strength in OVX mice as effectively as Btz” and the bone strength [2, 8] was “increases bone mass and strength in OVX mice as effectively as Btz”. For the same compound, the OVX-induced bone loss ([2]; OVX mice) was “reduces OVX-induced bone loss”, the osteoblast differentiation ([2]; OVX mice) was “more potently promotes osteoblast differentiation” and the CFU-ALP colony formation ([2]; cells from OVX mice) was “increases CFU-ALP colony formation”. For the same compound, the CFU-F colony formation ([2]; cells from OVX mice) was “increases CFU-F colony formation”, the myeloma cell growth [3] was “inhibits myeloma cell growth” and the “GFP+ cells on pre-incubated bone slices” value [4] was “present”. The osteoblast differentiation [5] was “stimulates osteoblast differentiation”, the bone volume ([6]; WT mice, FIG. 17) was “increases bone volume” and the osteoblast differentiation ([6]; WT mice, FIG. 17) was “increases”.
With `CC(C)C[C@H](NC(=O)[C@H](Cc1ccccc1)NC(=O)c1cnccn1)B(O)O` [Btz, [(1R)-3-methyl-1-[[(2S)-1-oxo-3-phenyl-2[(pyrazinylcarbonyl)amino]propyl]amino]butyl] boronic acid] the “GFP+ OCs after adding compound to OC cultures” value ([4]; 4 and 8 hrs) was “detected”, the “GFP+ OCs after adding compound to OC cultures” value ([4]; 24 hrs) was “disappeared” and the “GFP+ cells on pre-incubated bone slices” value [4] was “not”. For the same compound, the “expression of osteoblast positive regulators” value ([7]; 0.6 mg/kg ip day 1, 3, 5, 7, JunB and Runx2 in calluses) was “increases”, the MSC numbers ([7]; 0.6 mg/kg ip day 1, 3, 5, 7, callus cells) was “increases” and the “Nestin+ MPCs” value ([7]; fractured mice) was “increased”. For the same compound, the bone strength ([7]; fractured mice) was “increases bone strength”, the callus formation ([7]; fractured mice) was “accelerates callus formation” and the “Ub-proteins in fracture calluses” value ([7]; short-term treatment) was “accumulation of Ub-proteins”. The fracture healing ([7]; short-term treatment) was “increases fracture healing” and the bone volume ([6]; 3-m-old mice, 0.6 mg/kg/i.p. at day 1, 3, 5, read at day 10) was “increased bone volume”.

Reference: patent US11497813B2, “Bortezomib conjugates and methods using same” (Frank EBETINO et al., priority 2015, dated 2022)
